ChEMBL document CHEMBL1158030, “Endophyte fungal isolates from Podophyllum peltatum produce podophyllotoxin” (J Nat Prod, 2006)
Values after ≈ are worked out from the molar mass of the structure shown.

Test: Toxicity in brine shrimp after 24 hrs
Type: organism-based
Conditions: artemia, in vivo; read-out: LD50

COc1cc([C@@H]2c3cc4c(cc3[C@H](O)[C@H]3COC(=O)[C@H]23)OCO4)cc(OC)c1OC [PODOFILOX]
LC50 at 24 h: 2 µg/mL (≈ 4.83 µM)
